pIC50, pKi: −log10 of the molar value.
Tests used:
Adenosine receptor A1 = molecular target: T1, Adenosine receptor A1 (Homo sapiens, UniProt P30542); assay: biochemical
T1 sequence (P30542 whole entry): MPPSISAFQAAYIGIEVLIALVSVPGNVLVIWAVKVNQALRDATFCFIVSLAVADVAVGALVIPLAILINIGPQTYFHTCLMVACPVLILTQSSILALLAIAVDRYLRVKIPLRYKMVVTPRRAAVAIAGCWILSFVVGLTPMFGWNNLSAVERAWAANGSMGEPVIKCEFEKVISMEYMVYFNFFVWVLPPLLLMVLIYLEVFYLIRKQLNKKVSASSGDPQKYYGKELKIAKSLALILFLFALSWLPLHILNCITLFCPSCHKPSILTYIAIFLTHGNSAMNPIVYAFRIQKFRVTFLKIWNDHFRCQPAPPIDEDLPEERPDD

[1] = molecular target: Vesicular acetylcholine transporter (Homo sapiens, UniProt Q16572); assay: (§1) Percent inhibition against Acetylcholine transporter at 1 uM
Sequence of Vesicular acetylcholine transporter (Q16572 whole entry): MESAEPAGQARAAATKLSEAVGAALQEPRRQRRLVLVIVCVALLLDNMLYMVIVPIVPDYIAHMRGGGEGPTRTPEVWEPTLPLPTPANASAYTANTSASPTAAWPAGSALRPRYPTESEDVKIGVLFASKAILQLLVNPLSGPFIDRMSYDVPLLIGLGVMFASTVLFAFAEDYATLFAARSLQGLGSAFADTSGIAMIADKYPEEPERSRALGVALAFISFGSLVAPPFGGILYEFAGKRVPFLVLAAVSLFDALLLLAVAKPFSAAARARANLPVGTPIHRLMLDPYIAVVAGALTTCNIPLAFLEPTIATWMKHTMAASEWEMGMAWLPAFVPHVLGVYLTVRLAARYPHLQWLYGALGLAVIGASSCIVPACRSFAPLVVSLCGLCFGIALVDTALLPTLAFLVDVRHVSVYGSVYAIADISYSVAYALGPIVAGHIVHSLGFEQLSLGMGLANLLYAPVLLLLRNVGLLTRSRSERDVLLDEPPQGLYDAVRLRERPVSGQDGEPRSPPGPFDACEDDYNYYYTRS

Adenosine receptor A2a = Adenosine receptor A2a (Homo sapiens, UniProt P29274); assay: biochemical
Sequence of Adenosine receptor A2a (P29274 whole entry): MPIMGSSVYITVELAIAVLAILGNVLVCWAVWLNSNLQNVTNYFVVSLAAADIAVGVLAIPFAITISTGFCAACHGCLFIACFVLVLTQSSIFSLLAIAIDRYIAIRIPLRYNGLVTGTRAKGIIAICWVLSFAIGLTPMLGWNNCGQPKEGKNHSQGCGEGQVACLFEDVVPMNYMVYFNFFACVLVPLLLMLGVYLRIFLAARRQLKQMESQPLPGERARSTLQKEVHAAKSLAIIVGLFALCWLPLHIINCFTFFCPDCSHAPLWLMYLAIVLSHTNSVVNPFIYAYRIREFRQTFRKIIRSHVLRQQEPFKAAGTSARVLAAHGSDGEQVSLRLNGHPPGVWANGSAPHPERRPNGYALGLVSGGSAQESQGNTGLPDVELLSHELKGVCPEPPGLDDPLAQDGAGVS

Adenosine receptor A2b = molecular target: T2, Adenosine receptor A2b (Homo sapiens, UniProt P29275); assay: Binding affinity towards human Adenosine A2b receptor expressed in HEK293 cells using 5 nM [3H]DPCPX; assay type: cell-based
T2 sequence (P29275 whole entry): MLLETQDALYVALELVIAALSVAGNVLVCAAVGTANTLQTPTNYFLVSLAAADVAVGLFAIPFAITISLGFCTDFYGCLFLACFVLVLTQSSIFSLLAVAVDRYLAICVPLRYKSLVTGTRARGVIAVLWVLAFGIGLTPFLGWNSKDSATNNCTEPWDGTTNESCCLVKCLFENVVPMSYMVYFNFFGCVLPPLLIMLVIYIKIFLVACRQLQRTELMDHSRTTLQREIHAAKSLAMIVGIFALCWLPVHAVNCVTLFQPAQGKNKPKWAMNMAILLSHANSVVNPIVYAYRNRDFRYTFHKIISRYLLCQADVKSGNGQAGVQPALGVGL

[2] = molecular target: T3, GABA-A receptor; anion channel (Homo sapiens) (UniProt P14867+P47870+P18507+P28472+P48169+Q99928+Q9UN88+P34903+O00591+O14764+Q8N1C3+P18505+P78334+P47869+P31644+Q16445); assay: (§2) Percent inhibition against GABAA receptor alpha at a compound concentration of 1 uM; assay type: protein-complex assay
[3] = molecular target: Muscarinic acetylcholine receptor M1 (Homo sapiens) (UniProt P11229); details: at 1 µM
[4] = molecular target: 5-hydroxytryptamine receptor 1A (Homo sapiens) (UniProt P08908); assay: Percent inhibition against 5-hydroxytryptamine 1A receptor at 1 uM
[5] = molecular target: Sodium-dependent dopamine transporter (Homo sapiens) (UniProt Q01959); details: 1 uM
Sequence of Sodium-dependent dopamine transporter (Homo sapiens) (Q01959 whole entry): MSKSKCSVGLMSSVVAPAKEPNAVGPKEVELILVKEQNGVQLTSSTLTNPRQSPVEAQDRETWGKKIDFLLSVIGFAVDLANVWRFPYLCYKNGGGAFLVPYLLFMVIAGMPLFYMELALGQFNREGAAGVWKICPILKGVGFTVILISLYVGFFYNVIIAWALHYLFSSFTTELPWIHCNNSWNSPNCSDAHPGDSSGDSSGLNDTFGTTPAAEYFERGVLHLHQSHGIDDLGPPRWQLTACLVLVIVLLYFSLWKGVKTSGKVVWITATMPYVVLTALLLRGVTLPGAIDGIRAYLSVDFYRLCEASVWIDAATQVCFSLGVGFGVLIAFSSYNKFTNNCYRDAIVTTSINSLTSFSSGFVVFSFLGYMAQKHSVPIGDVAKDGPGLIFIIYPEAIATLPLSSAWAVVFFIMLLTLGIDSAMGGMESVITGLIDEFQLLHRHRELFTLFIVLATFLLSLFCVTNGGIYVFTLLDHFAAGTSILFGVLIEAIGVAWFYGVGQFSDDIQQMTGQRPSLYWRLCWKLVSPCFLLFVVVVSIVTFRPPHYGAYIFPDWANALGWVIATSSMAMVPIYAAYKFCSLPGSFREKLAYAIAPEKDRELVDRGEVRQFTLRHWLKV

[6] = molecular target: Equilibrative nucleoside transporter 1 (Homo sapiens) (UniProt Q99808); assay: Percent inhibition against ADO transporter at 1 uM nonselective
Sequence of Equilibrative nucleoside transporter 1 (Homo sapiens) (Q99808 whole entry): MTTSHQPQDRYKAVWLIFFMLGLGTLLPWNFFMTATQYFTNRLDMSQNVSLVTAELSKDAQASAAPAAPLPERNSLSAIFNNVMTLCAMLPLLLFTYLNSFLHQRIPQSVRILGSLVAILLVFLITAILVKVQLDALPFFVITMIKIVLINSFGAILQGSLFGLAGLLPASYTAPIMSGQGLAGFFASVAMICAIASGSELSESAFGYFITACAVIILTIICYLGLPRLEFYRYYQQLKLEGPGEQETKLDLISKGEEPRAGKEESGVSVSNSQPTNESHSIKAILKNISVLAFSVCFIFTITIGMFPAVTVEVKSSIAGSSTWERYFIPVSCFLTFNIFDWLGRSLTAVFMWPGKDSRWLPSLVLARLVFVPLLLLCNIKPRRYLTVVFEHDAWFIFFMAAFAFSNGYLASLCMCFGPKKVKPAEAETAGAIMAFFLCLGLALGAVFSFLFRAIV

[7] = molecular target: Beta-2 adrenergic receptor (Homo sapiens) (UniProt P07550); assay: Percent inhibition against Beta-2 adrenergic receptor at 1 uM
Sequence of Beta-2 adrenergic receptor (Homo sapiens) (P07550 whole entry, looked up): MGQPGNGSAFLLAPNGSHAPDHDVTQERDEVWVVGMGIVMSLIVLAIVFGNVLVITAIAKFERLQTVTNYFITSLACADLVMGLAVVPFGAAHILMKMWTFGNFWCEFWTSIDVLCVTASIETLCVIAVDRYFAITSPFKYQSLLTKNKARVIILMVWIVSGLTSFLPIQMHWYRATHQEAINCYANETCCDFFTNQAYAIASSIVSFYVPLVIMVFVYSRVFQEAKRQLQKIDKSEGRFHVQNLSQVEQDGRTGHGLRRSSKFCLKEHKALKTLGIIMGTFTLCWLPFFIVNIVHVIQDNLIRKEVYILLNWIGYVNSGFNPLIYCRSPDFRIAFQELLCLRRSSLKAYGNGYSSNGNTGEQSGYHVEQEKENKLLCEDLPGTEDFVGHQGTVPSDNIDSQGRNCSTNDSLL

[8] = molecular target: D(3) dopamine receptor (Homo sapiens) (UniProt P35462); assay: Percent inhibition against Dopamine receptor D3 at 1 uM
[9] = molecular target: GABA-B receptor (Homo sapiens) (UniProt Q9UBS5+O75899); assay: Percent inhibition against GABA-B receptor at 1 uM; assay type: protein-complex assay
[10] = molecular target: D(1A) dopamine receptor (Homo sapiens) (UniProt P21728); details: 1 uM
Sequence of D(1A) dopamine receptor (Homo sapiens) (P21728 whole entry): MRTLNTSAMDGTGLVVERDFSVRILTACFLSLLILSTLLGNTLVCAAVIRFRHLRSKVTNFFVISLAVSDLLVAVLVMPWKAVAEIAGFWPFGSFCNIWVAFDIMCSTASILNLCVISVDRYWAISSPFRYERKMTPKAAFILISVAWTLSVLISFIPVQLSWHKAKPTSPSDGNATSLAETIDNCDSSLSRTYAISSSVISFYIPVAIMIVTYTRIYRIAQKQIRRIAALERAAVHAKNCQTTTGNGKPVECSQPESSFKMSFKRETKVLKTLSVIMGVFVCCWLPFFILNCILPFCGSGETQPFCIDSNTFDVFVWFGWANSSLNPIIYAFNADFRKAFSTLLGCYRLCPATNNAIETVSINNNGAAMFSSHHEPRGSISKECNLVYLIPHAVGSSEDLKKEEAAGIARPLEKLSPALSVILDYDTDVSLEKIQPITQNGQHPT

[11] = molecular target: 5-hydroxytryptamine receptor 6 (Homo sapiens) (UniProt P50406); assay: Percent inhibition against 5-hydroxytryptamine 6 receptor at 1 uM
[12] = molecular target: Muscarinic acetylcholine receptor M5 (Homo sapiens) (UniProt P08912); assay: Percent inhibition against Muscarinic acetylcholine receptor M5 at 1 uM
Sequence of Muscarinic acetylcholine receptor M5 (Homo sapiens) (P08912 whole entry): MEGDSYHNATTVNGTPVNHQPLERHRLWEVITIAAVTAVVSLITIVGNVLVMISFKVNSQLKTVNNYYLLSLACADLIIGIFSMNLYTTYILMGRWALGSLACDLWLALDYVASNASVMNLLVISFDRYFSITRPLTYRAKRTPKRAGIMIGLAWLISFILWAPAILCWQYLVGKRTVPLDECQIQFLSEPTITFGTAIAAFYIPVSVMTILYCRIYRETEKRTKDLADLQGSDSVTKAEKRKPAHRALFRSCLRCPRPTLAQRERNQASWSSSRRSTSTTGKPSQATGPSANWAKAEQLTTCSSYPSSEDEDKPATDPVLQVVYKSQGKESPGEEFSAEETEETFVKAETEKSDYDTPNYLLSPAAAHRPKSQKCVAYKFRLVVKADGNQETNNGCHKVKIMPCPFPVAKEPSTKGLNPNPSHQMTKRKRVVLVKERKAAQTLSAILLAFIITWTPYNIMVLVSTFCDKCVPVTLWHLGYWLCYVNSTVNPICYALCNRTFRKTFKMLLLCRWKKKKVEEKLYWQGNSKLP

[13] = molecular target: Muscarinic acetylcholine receptor M4 (Homo sapiens) (UniProt P08173); assay: Percent inhibition against Muscarinic acetylcholine receptor M4 at 1 uM
Sequence of Muscarinic acetylcholine receptor M4 (Homo sapiens) (P08173 whole entry): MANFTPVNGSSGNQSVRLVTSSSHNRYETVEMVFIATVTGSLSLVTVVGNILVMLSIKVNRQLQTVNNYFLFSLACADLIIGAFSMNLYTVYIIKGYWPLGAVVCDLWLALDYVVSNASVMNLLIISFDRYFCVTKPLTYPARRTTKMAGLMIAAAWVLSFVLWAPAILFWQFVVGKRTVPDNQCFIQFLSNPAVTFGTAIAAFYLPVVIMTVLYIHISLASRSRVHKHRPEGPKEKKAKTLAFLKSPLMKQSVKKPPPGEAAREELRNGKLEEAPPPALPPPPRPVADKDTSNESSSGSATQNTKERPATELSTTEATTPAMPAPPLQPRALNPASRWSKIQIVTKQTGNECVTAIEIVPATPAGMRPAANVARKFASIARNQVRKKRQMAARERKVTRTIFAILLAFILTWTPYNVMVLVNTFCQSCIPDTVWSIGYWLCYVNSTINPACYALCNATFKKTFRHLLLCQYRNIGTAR

[14] = molecular target: Opioid receptors; mu/kappa/delta (Homo sapiens) (UniProt P41145+P41143+P35372); details: at 1 µM
Adenosine receptor A3 = Adenosine receptor A3 (Homo sapiens, UniProt P0DMS8); assay: Binding affinity towards human Adenosine A3 receptor expressed in HEK293 cells using 0.1 nM [3H]AB-MECA; assay type: cell-based
[15] = molecular target: Sodium-dependent noradrenaline transporter (Homo sapiens) (UniProt P23975); assay: Percent inhibition against Norepinephrine transporter at 1 uM nonselective
[16] = molecular target: D(4) dopamine receptor (Homo sapiens) (UniProt P21917); details: 1 uM
Sequence of D(4) dopamine receptor (Homo sapiens) (P21917 whole entry): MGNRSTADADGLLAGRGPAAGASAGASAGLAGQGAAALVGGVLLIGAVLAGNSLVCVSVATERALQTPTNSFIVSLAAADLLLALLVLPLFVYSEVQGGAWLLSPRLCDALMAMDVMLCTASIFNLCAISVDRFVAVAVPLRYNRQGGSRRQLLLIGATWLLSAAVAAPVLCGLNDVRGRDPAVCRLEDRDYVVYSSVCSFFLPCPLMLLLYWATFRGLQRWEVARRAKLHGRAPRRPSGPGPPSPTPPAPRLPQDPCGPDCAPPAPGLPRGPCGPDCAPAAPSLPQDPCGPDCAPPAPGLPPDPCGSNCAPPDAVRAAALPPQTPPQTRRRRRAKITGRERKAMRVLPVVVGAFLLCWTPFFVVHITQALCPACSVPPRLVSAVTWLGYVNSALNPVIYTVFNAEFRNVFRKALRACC

[17] = molecular target: 5-hydroxytryptamine receptor 5A (Homo sapiens) (UniProt P47898); details: 1 uM
[18] = molecular target: 5-hydroxytryptamine receptor 2C (Homo sapiens) (UniProt P28335); assay: Percent inhibition against 5-hydroxytryptamine 2C receptor at 1 uM
[19] = molecular target: D(2) dopamine receptor (Homo sapiens) (UniProt P14416); details: 1 uM
[20] = molecular target: Adrenergic receptor alpha-1 (Homo sapiens) (UniProt P35348+P25100+P35368); details: 1 uM
[21] = molecular target: Vesicular acetylcholine transporter (Homo sapiens) (UniProt Q16572); assay: as §1
Sequence of Vesicular acetylcholine transporter (Homo sapiens) (Q16572 whole entry): as the sequence (Q16572 whole entry) above

[22] = molecular target: Serotonin 3 (5-HT3) receptor (Homo sapiens) (UniProt P46098+A5X5Y0+O95264+Q70Z44+Q8WXA8); details: 1 uM
[23] = molecular target: T3, GABA-A receptor; anion channel (Homo sapiens); assay: Percent inhibition against central Benzodiazepine receptor at 1 uM; assay type: protein-complex assay
[24] = molecular target: 5-hydroxytryptamine receptor 4 (Homo sapiens) (UniProt Q13639); assay: Percent inhibition against 5-hydroxytryptamine 4 receptor at 1 uM
[25] = molecular target: T4, Glutamate [NMDA] receptor (Homo sapiens) (UniProt Q05586+Q12879+Q13224+O15399+O60391+Q14957+Q8TCU5); assay: Percent inhibition against NMDA receptor at a compound concentration of 1 uM; assay type: protein-complex assay
[26] = molecular target: T4, Glutamate [NMDA] receptor (Homo sapiens); assay: Percent inhibition against PCP receptor at 1 uM; assay type: protein-complex assay
Homo sapiens [27] = species on record: Homo sapiens; assay: Percent inhibition against P2X Purinergic receptor at 1 uM; assay type: tissue-based
[28] = molecular target: Glutamate receptor ionotropic AMPA (Homo sapiens) (UniProt P48058+P42263+P42262+P42261); assay: (§3) Percent inhibition against AMPA receptor at 1 uM; assay type: protein-complex assay
Homo sapiens [29] = species on record: Homo sapiens; assay: (§4) Percent inhibition against P2Y Purinoceptor at 1 uM
[30] = molecular target: Sodium-dependent serotonin transporter (Homo sapiens) (UniProt P31645); details: 1 uM
Sequence of Sodium-dependent serotonin transporter (Homo sapiens) (P31645 whole entry, looked up): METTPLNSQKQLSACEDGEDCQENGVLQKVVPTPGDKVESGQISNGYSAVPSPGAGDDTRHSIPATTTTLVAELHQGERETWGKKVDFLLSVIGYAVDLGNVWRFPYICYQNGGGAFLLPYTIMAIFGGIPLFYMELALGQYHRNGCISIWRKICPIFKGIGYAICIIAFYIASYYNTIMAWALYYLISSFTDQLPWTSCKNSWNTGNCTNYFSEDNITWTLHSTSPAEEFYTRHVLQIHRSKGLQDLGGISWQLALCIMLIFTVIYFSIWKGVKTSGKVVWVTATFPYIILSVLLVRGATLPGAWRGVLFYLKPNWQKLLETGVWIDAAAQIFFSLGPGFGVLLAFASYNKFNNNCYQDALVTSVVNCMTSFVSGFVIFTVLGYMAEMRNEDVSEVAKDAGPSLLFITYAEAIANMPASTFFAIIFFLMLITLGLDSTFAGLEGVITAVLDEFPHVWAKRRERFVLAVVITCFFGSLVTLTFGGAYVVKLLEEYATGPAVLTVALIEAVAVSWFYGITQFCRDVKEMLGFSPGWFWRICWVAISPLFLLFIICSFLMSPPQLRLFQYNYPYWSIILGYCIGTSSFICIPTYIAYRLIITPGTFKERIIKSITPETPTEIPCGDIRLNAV

[31] = molecular target: 5-hydroxytryptamine receptor 2A (Homo sapiens) (UniProt P28223); assay: Percent inhibition against 5-hydroxytryptamine 2A receptor at 1 uM
[32] = molecular target: D(1B) dopamine receptor (Homo sapiens) (UniProt P21918); assay: Percent inhibition against Dopamine receptor D5 at 1 uM
[33] = molecular target: Muscarinic acetylcholine receptor M3 (Homo sapiens) (UniProt P20309); assay: Percent inhibition against Muscarinic acetylcholine receptor M3 at 1 uM
[34] = molecular target: Beta-1 adrenergic receptor (Homo sapiens) (UniProt P08588); details: 1 uM
[35] = molecular target: Muscarinic acetylcholine receptor M2 (Homo sapiens) (UniProt P08172); details: 1 uM
[36] = as §4; set-up: species or system Homo sapiens
[37] = molecular target: GABA-A receptor; anion channel; assay: as §2; assay type: protein-complex assay, Homo sapiens
[38] = molecular target: Glutamate receptor ionotropic AMPA (Homo sapiens, UniProt P42261+P42262+P42263+P48058); assay: as §3; assay type: protein-complex assay

For `CCn1c(=O)c2c(nc(/C=C/c3ccc(OC)c(OC)c3)n2C)n(CC)c1=O` [ISTRADEFYLLINE], the pKi (Adenosine receptor A1) was < 6.00.
Compound `C[N+]1(C)CCOC(O)(c2ccc(-c3ccc(C4(O)C[N+](C)(C)CCO4)cc3)cc2)C1` (centres undefined) has a pIC50 [1] of 7.92.
`Cc1nc(N)c2nc(-n3nccn3)n(C)c2n1` gave a pKi (Adenosine receptor A1) of 7.98.
Compound `Cn1c(-n2nccn2)nc2c(N)nccc21` has a pKi (Adenosine receptor A2a) of 7.29, a pKi (Adenosine receptor A1) of 5.98 and a pKi (Adenosine receptor A2b) of 6.29.
With `CC(C)c1nc(N)c2nc(-n3nccn3)n(C)c2n1` the pKi (Adenosine receptor A2a) was 6.32 and the pKi (Adenosine receptor A1) was 5.64.
In the case of `CCCCCc1nc(N)c2nc(-n3nccn3)n(C)c2n1`, the inhibition [2] was < 10%, the inhibition [3] was < 10% and the inhibition [4] was < 10%. For the same compound, the inhibition [5] was < 10%, the inhibition [6] was 34% and the inhibition [7] was < 10%. The inhibition [8] was < 10%, the inhibition [9] was < 10% and the inhibition [10] was < 10%. For the same compound, the inhibition [11] was < 10%, the inhibition [12] was < 10% and the inhibition [13] was < 10%. For the same compound, the inhibition [14] was < 10%, the pKi (Adenosine receptor A3) was 6.12 and the inhibition [15] was < 10%. The inhibition [16] was < 10%, the inhibition [17] was < 10% and the inhibition [18] was < 10%. For the same compound, the inhibition [19] was < 10%, the inhibition [20] was < 10% and the inhibition [21] was < 10%. For the same compound, the inhibition [22] was < 10%, the inhibition [23] was < 10% and the inhibition [24] was < 10%. The inhibition [25] was < 10%, the inhibition [26] was < 10% and the inhibition (Homo sapiens [27]) was < 10%. The inhibition [28] was < 10%, the inhibition (Homo sapiens [29]) was < 10% and the inhibition [30] was < 10%. The inhibition [31] was < 10%, the inhibition [32] was < 10% and the inhibition [33] was < 10%. For the same compound, the inhibition [34] was < 10% and the inhibition [35] was < 10%.
Work on `Nc1ncnc2c1ncn2[C@@H]1O[C@H](COP(=O)(O)CP(=O)(O)OP(=O)(O)O)[C@@H](O)[C@H]1O` [DIPHOSPHOMETHYLPHOSPHONIC ACID ADENOSYL ESTER] yielded an inhibition [36] of 14%.
For `CCCc1nc(N)c2nc(-n3nccn3)n(C)c2n1`, the pKi (Adenosine receptor A2a) was 7.08, the pKi (Adenosine receptor A1) was 6.58 and the pKi (Adenosine receptor A2b) was 7.74.
Work on `NCc1cc(=O)[nH]o1` [MUSCIMOL] yielded a pIC50 [37] of 7.80.
With `Cc1cc2c(nc(-n3nccn3)n2C)c(N)n1` the pKi (Adenosine receptor A2a) was 6.92, the pKi (Adenosine receptor A1) was 6.47 and the pKi (Adenosine receptor A2b) was 6.85.
For `Cn1c(-n2nccn2)nc2c(N)ncnc21`, the pKi (Adenosine receptor A1) was 9.40.
Work on `Nc1ncnc2c1ncn2[C@H]1C[C@H](O)[C@@H](COP(O)(=S)OP(=O)(O)OP(=O)(O)O)O1` (some centres undefined) yielded an inhibition [36] of 22%.
For `O=c1nc2[nH]c3ccccc3nc-2c(=O)[nH]1` [ALLOXAZINE], the pKi (Adenosine receptor A2a) was 6.03 and the pKi (Adenosine receptor A1) was < 4.00.
With `O=C(O)[C@@H]1C[C@H](CP(=O)(O)O)CCN1` [SELFOTEL] the pIC50 [38] was 6.01.
In the case of `CCCCc1nc(N)c2nc(-n3nccn3)n(C)c2n1` [ST1535], the inhibition [2] was < 10%, the inhibition [3] was < 10% and the inhibition [4] was < 10%. The inhibition [5] was < 10%, the inhibition [6] was 24% and the inhibition [7] was < 10%. For the same compound, the inhibition [8] was < 10%, the inhibition [9] was < 10% and the inhibition [10] was < 10%. For the same compound, the inhibition [11] was < 10%, the inhibition [12] was < 10% and the inhibition [13] was < 10%. For the same compound, the pKi (Adenosine receptor A2a) was 8.18, the inhibition [14] was < 10% and the pKi (Adenosine receptor A1) was 7.14. For the same compound, the pKi (Adenosine receptor A3) was < 6.00, the pKi (Adenosine receptor A2b) was 6.45 and the inhibition [15] was < 10%. For the same compound, the inhibition [16] was < 10%, the inhibition [17] was < 10% and the inhibition [18] was < 10%. The inhibition [19] was < 10%, the inhibition [20] was < 10% and the inhibition [21] was < 10%. For the same compound, the inhibition [22] was < 10%, the inhibition [23] was < 10% and the inhibition [24] was < 10%. The inhibition [25] was < 10%, the inhibition [26] was < 10% and the inhibition (Homo sapiens [27]) was < 10%. The inhibition [28] was < 10%, the inhibition (Homo sapiens [29]) was < 10% and the inhibition [30] was < 10%. For the same compound, the inhibition [31] was < 10%, the inhibition [32] was < 10% and the inhibition [33] was < 10%. The inhibition [34] was < 10% and the inhibition [35] was < 10%.

Reference: ChEMBL document CHEMBL1140374, “2-n-Butyl-9-methyl-8-[1,2,3]triazol-2-yl-9H-purin-6-ylamine and analogues as A2A adenosine receptor antagonists. Design, synthesis, and pharmacological characterization” (J Med Chem, 2005)
